Assay results published in the NIST ThermoML archive (doi:10.1021/je700260f).

Settings: 333.16 K, Liquid, Vibrating tube method

FC(C(F)(F)F)C(F)(F)F [1,1,1,2,3,3,3-heptafluoropropane]
Settings | mass density [kg/m3]
12443 kPa | 1344.2
12466 kPa | 1344.3
12886 kPa | 1347.5
12914 kPa | 1347.5
12942 kPa | 1347.8
12966 kPa | 1347.9
12994 kPa | 1348.2
13023 kPa | 1348.2
13053 kPa | 1348.6
13082 kPa | 1348.9
13115 kPa | 1349.1
13140 kPa | 1349.1
13164 kPa | 1349.4
13196 kPa | 1349.7
13220 kPa | 1349.7
13244 kPa | 1349.9
13272 kPa | 1350.2
13304 kPa | 1350.5
13324 kPa | 1350.5
13344 kPa | 1350.6
13368 kPa | 1350.9
13394 kPa | 1351.1
13432 kPa | 1351.2
13461 kPa | 1351.4
13494 kPa | 1351.7
13518 kPa | 1351.9
13633 kPa | 1352.7
13666 kPa | 1352.9
13690 kPa | 1353
13724 kPa | 1353.1
13921 kPa | 1354.7
13954 kPa | 1354.9
13991 kPa | 1355.1
14017 kPa | 1355.3
14050 kPa | 1355.5
14075 kPa | 1355.8
14106 kPa | 1355.9
14140 kPa | 1356.2
14828 kPa | 1360.7
14853 kPa | 1360.9
14892 kPa | 1361.2
14922 kPa | 1361.4
14953 kPa | 1361.5
14979 kPa | 1361.7
15001 kPa | 1361.9
15034 kPa | 1362.1
15054 kPa | 1362.3
15081 kPa | 1362.5
15117 kPa | 1362.6
15153 kPa | 1362.8
15179 kPa | 1363
15260 kPa | 1363.6
15320 kPa | 1364
15346 kPa | 1364.2
15370 kPa | 1364.4
15404 kPa | 1364.4
15436 kPa | 1364.7
15464 kPa | 1364.9
15500 kPa | 1365.2
15533 kPa | 1365.2
15561 kPa | 1365.5
15593 kPa | 1365.8
15630 kPa | 1366
15658 kPa | 1366.2
15689 kPa | 1366.4
15953 kPa | 1368
15985 kPa | 1368.1
16013 kPa | 1368.3
16049 kPa | 1368.5
16085 kPa | 1368.9
16105 kPa | 1369.1
16141 kPa | 1369.2
16169 kPa | 1369.4
16193 kPa | 1369.6
16223 kPa | 1369.6
16248 kPa | 1370
16281 kPa | 1370.1
16314 kPa | 1370.3
16339 kPa | 1370.4
16363 kPa | 1370.5
16388 kPa | 1370.7
16416 kPa | 1370.9
16540 kPa | 1371.7
16572 kPa | 1371.9
16600 kPa | 1372
16655 kPa | 1372.4
16788 kPa | 1373.2
16821 kPa | 1373.3
16850 kPa | 1373.5
16876 kPa | 1373.7
16909 kPa | 1373.8
16937 kPa | 1374.2
16964 kPa | 1374.2
16992 kPa | 1374.4
17013 kPa | 1374.5
17038 kPa | 1374.7
17063 kPa | 1374.9
17088 kPa | 1374.9
17109 kPa | 1375.2
17137 kPa | 1375.3
17162 kPa | 1375.4
17189 kPa | 1375.7
17215 kPa | 1375.7
